Counter-ions that a name gives are not always drawn. Like-named read-outs stand apart in the source and are kept apart here.
Key:
[1] = test system: fibrin-induced microglia activation; test: Image-based assay of fibrin-induced microglia activation (HTS and dose response); assay type: cell-based, rat; settings: for inhibition at 10 µM: Rattus norvegicus, Microglia, read-out: Fibrin % inhibition
[2] = test system: LPS-induced microglia activation; test: Image-based assay of LPS-induced microglia activation (HTS and dose response); assay type: cell-based, rat; settings: for inhibition at 10 µM: Rattus norvegicus, Microglia, read-out: LPS % inhibition
[3] = test system: fibrin- and LPS-induced microglia activation; test: cells; assay type: cell-based, rat
[4] = test system: primary rat microglia; test: Cell toxicity (dead cells, size <150 μm2) in LPS assay
[5] = test system: primary rat microglia; test: Cell toxicity (dead cells, size <150 μm2) in coated fibrin (cFib) assay;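 also: share of dead cells sized under 150 µm2 at 10 µM in fibrin-stimulated microglia HTS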
[6] = primary microglia HTS, fibrin stimulation, activation = cell size >800 μm2
[7] = 48 h, primary microglia HTS, LPS stimulation, activation = cell size >800 μm2
[8] = quadrant by fibrin and LPS inhibition in HTS of 1907 compounds
[9] = primary microglia HTS, LPS stimulation, toxicity = cell size <150 μm2
[10] = primary microglia HTS, fibrin stimulation, toxicity = cell size <150 μm2
[11] = primary microglia HTS, 10 μM, fibrin-stimulated, cell size >800 μm^2 as marker of activation
[12] = primary microglia HTS, 10 μM, LPS-stimulated, cell size >800 μm^2 as marker of activation
[13] = HTS of 1907 compounds, quadrant by fibrin and LPS inhibition
[14] = primary microglia HTS, 10 μM, LPS assay, cell size <150 μm^2 as marker of toxicity
[15] = primary microglia HTS, 10 μM, fibrin assay, cell size <150 μm^2 as marker of toxicity
[16] = primary microglia HTS, fibrin stimulation, increased cell size (>800 μm^2) as marker of activation
[17] = primary microglia HTS, LPS stimulation, decreased size (<150 μm^2) as marker of toxicity
[18] = primary microglia HTS, fibrin stimulation, decreased size (<150 μm^2) as marker of toxicity
[19] = primary HTS, 10 μM, fibrin-stimulated primary microglia
[20] = primary HTS, 10 μM, LPS-stimulated primary microglia
[21] = primary HTS, 10 μM, LPS assay, dead cells size <150 μm2
[22] = primary HTS, 10 μM, fibrin assay, dead cells size <150 μm2

Compound	inhibition at 10 µM [1, 6] [%]	inhibition at 10 µM [2, 7] [%]	Quadrant (FIG. 5b) [3, 8]	LPS % cell toxicity [4, 9] [%]	Fibrin % cell toxicity [5, 10] [%]	Quadrant (FIG. 5b) ([3]; primary HTS, 10 μM)	LPS % cell toxicity [4, 21] [%]	Fibrin % cell toxicity [5, 22] [%]	other results
NS(=O)(=O)c1cc2c(cc1C(F)(F)F)NCNS2(=O)=O [Hydroflumethiazide]	-9	11	Q4	0	0	–	–	–	–
CC1=C(/C=C/C(C)=C/C=C/C(C)=C/C(=O)Nc2ccc(O)cc2)C(C)(C)CCC1 [Fenretinide]	-42	35	Q4	0	0	–	–	–	–
CCCCC(CC)CN1CN(CC(CC)CCCC)CC(C)(N)C1 (centres unmarked) [Hexetidine]	-85	19	Q4	0	1	–	–	–	–
COc1cc(NS(=O)(=O)c2ccc(N)cc2)ncn1 [Sulfamonomethoxine]	–	–	–	–	–	–	–	–	inhibition at 10 µM [1, 11]: 38%; inhibition at 10 µM [2, 12]: 19%; Quadrant (FIG. 5b) [3, 13]: Q4; LPS % cell toxicity [4, 14]: 1%; Fibrin % cell toxicity [5, 15]: 1%
C=C1c2c(Cl)ccc(O)c2C(=O)C2=C(O)[C@]3(O)C(=O)C(C(N)=O)=C(O)[C@@H](N(C)C)[C@@H]3[C@@H](O)[C@H]12.O=C(O)c1cc(S(=O)(=O)O)ccc1O [Meclocycline Sulfosalicylate]	–	–	Q4	–	–	–	–	–	Fibrin % inhibition [1, 16]: 20%; LPS % inhibition ([2]; primary microglia HTS, LPS stimulation, increased cell size (>800 μm^2) as marker of activation): 18%; LPS % cell toxicity [4, 17]: 0%; Fibrin % cell toxicity [5, 18]: 1%
CN1CC(=O)N2[C@H](c3ccc4c(c3)OCO4)c3[nH]c4ccccc4c3C[C@@H]2C1=O [Tadalafil]	–	–	–	–	–	–	–	–	inhibition at 10 µM [1, 11]: -1%; inhibition at 10 µM [2, 12]: 16%; Quadrant (FIG. 5b) [3, 13]: Q4; LPS % cell toxicity [4, 14]: 0%; Fibrin % cell toxicity [5, 15]: 1%
NS(=O)(=O)c1cc2c(cc1Cl)N=CNS2(=O)=O [Chlorothiazide]	–	–	–	–	–	Q4	0	0	inhibition at 10 µM [1, 19]: 20%; inhibition at 10 µM [2, 20]: 3%
C[N+](C)(CCOc1ccccc1)Cc1ccccc1.O=C([O-])c1cc2ccccc2cc1O [Bephenium Hydroxynapthoate]	–	–	–	–	–	Q4	0	1	Fibrin % inhibition [1, 19]: 25%; LPS % inhibition [2, 20]: 19%
Cc1cc(O)ccc1Cl [Chlorocresol]	–	–	–	–	–	Q4	0	1	inhibition at 10 µM [1, 19]: -25%; inhibition at 10 µM [2, 20]: 11%
COc1ncnc(NS(=O)(=O)c2ccc(N)cc2)c1OC [Sulfadoxine]	–	–	–	–	–	–	–	–	inhibition at 10 µM [1, 11]: -12%; inhibition at 10 µM [2, 12]: 3%; Quadrant (FIG. 5b) [3, 13]: Q4; LPS % cell toxicity [4, 14]: 0%; Fibrin % cell toxicity [5, 15]: 1%
N=C(N)N [Guanidine]	-32	-1	Q4	0	0	–	–	–	–
CO/N=C(\C(=O)N[C@@H]1C(=O)N2C(C(=O)[O-])=C(C[N+]3(C)CCCC3)CS[C@H]12)c1csc(N)n1 [Cefepime]	–	–	–	–	–	Q4	0	1	inhibition at 10 µM [1, 19]: -26%; inhibition at 10 µM [2, 20]: 4%
COc1ccc2c(c1OC)C(=O)O[C@@H]2[C@H]1c2c(cc3c(c2OC)OCO3)CCN1C [Noscapine Hydrochloride]	–	–	Q4	–	–	–	–	–	inhibition at 10 µM [1, 16]: -15%; inhibition at 10 µM ([2]; 48 h, primary microglia HTS, LPS stimulation, increased cell size (>800 μm^2) as marker of activation): 23%; LPS % cell toxicity [4, 17]: 0%; Fibrin % cell toxicity [5, 18]: 1%
[H]/N=C(/N)NS(=O)(=O)c1ccc(N)cc1 [Sulfaguanidine]	–	–	–	–	–	–	–	–	inhibition at 10 µM [1, 11]: -23%; inhibition at 10 µM [2, 12]: 12%; Quadrant (FIG. 5b) [3, 13]: Q4; LPS % cell toxicity [4, 14]: 0%; Fibrin % cell toxicity [5, 15]: 1%
CC(C)(Oc1ccc(CCNC(=O)c2ccc(Cl)cc2)cc1)C(=O)O [Bezafibrate]	–	–	–	–	–	Q4	0	0	inhibition at 10 µM [1, 19]: -4%; inhibition at 10 µM [2, 20]: 18%
CC[C@H]1CN2CC[C@H]1C[C@@H]2[C@@H](O)c1ccnc2ccc(OC)cc12 [Hydroquinidine]	-8	18	Q4	0	1	–	–	–	–

Reference: patent publication US20210330611A1, “THERAPY FOR NEUROLOGICAL DISEASES/DISORDERS” (priority 2020, published 2021)
